# According to ChEMBL document CHEMBL5634137, “2,4-Diacetylphloroglucinol (DAPG) derivatives rapidly eradicate methicillin-resistant staphylococcus aureus without resistance development by disrupting membrane” (Eur J Med Chem, 2023):
# Calls of active or inactive are those of the source. No cut-off for these calls is given here.
# Key:
# Staphylococcus aureus [1] = assay: Bactericidal against methicillin-resistant Staphylococcus aureus ATCC 4330 assessed as inhibition of bacterial growth incubated for 24 hrs by broth dilution method; type: functional
# Staphylococcus aureus [2] = assay: Synergistic antibacterial activity against Methicillin-resistant Staphylococcus aureus USA300 assessed as amoxicillin MIC incubated for 24 hrs by checkboard method (reference value: 8 microg/ml); type: functional
# Staphylococcus aureus [3] = assay: Antibacterial activity against Methicillin-resistant Staphylococcus aureus USA300 assessed as decrease in number of colonies incubated for 0.5 hrs by time-kill kinetics assay; type: functional, organism-based
# Staphylococcus aureus [4] = assay: Antibacterial activity against methicillin-resistant Staphylococcus aureus ATCC 3392 assessed as inhibition of bacterial growth incubated for 24 hrs by broth dilution method; type: functional
# Staphylococcus aureus [5] = assay: Induction of morphological changes in Staphylococcus aureus USA300 assessed as appearance of wrinkled cell surface at 2 to 4 times MIC by SEM analysis; type: functional, organism-based
# Staphylococcus aureus [6] = assay: Inhibition of staphyloxanthin biosynthesis in Methicillin-resistant Staphylococcus aureus ATCC 3392 assessed as reduction in Staphyloxanthin formation at 0.125 to 0.625 times MIC by nanodrop spectrophotometer analysis; type: functional, organism-based
# Cell membrane [7] = assay: Induction of inner membrane permeabilization in Staphylococcus aureus USA300 assessed as increase in fluorescence intensity incubated for 90 mins by SYTOX staining based analysis; type: cell membranes
# Cell membrane [8] = assay: Induction of inner membrane permeabilization in Staphylococcus aureus USA300 assessed as increase in fluorescence intensity at 2 times MIC incubated for 40 mins by SYTOX staining based analysis; type: cell membranes
# Staphylococcus aureus [9] = assay: Induction of morphological changes in Staphylococcus aureus USA300 assessed as appearance of broken cell surface at 2 to 4 times MIC by SEM analysis; type: functional, organism-based
# Cell membrane [10] = assay: Induction of cell membrane damage in Staphylococcus aureus USA300 assessed as increase in red fluorescence intensity at 2 times MIC by confocal laser scanning microscopic analysis; type: cell membranes
# Staphylococcus aureus [11] = assay: Antibiofilm activity against Methicillin-resistant Staphylococcus aureus USA300 assessed as biofilm eradication at 16 times MIC by crystal violet staining based assay; type: functional
# Escherichia coli = assay: Antibacterial activity against Escherichia coli ATCC 11775 assessed as inhibition of bacterial growth incubated for 24 hrs by broth dilution method; type: functional
# Staphylococcus aureus [12] = assay: Synergistic antibacterial activity against Methicillin-resistant Staphylococcus aureus USA300 assessed as fractional inhibitory concentration index in presence of oxacillin by checkboard method; type: functional
# Staphylococcus aureus [13] = assay: Synergistic antibacterial activity against Methicillin-resistant Staphylococcus aureus USA300 assessed as oxacillin MIC incubated for 24 hrs by checkboard method (reference value: 2 microg/ml); type: functional
# Staphylococcus aureus [14] = assay: Additive antibacterial activity against Methicillin-resistant Staphylococcus aureus USA300 assessed as fractional inhibitory concentration index in presence of doxycycline by checkboard method; type: functional
# Staphylococcus aureus [15] = assay: Antibacterial activity against Methicillin-resistant Staphylococcus aureus USA300 assessed as decrease in number of colonies at 0.5 times MIC incubated for 2 to 5 hrs by time-kill kinetics assay; type: functional, organism-based; conditions: time 2-5 hrs
# Staphylococcus aureus [16] = assay: Antibacterial activity against methicillin-resistant Staphylococcus aureus ATCC 4330 assessed as inhibition of bacterial growth incubated for 24 hrs by broth dilution method; type: functional
# Klebsiella pneumoniae = assay: Antibacterial activity against Klebsiella pneumoniae […] assessed as inhibition of bacterial growth incubated for 24 hrs by broth dilution method; type: functional
# [17] = Cytotoxicity against human L02 cells assessed as survival rate incubated for 24 hrs by MTT assay; type: toxicity, cell-based; parameters: concentration or dose not given beside the values; conditions: read-out: Survival
# Cell membrane [18] = assay: Induction of cell membrane damage in Staphylococcus aureus USA300 assessed as nucleic acid leakage at 1 to 2 times MIC by confocal laser scanning microscopic analysis; type: cell membranes
# Cell membrane [19] = assay: Induction of cell membrane damage in Staphylococcus aureus USA300 assessed as intracellular ATP leakage at 1 to 8 times MIC by confocal laser scanning microscopic analysis; type: cell membranes
# Staphylococcus aureus [20] = assay: Selectivity index, ratio of MBC for bactericidal against methicillin-resistant Staphylococcus aureus ATCC 3392 to MIC for antibacterial activity against methicillin-resistant Staphylococcus aureus ATCC 3392; type: functional
# Staphylococcus aureus [21] = assay: Synergistic antibacterial activity against Methicillin-resistant Staphylococcus aureus USA300 assessed as fractional inhibitory concentration index in presence of amoxicillin by checkboard method; type: functional
# Staphylococcus aureus [22] = assay: Antibiofilm activity against Methicillin-resistant Staphylococcus aureus USA300 assessed as inhibition of biofilm formation at 0.5 times MIC by crystal violet staining based assay; type: functional; parameters: scale not given: the % may be the effect or the level left
# Staphylococcus aureus [23] = assay: Antibiofilm activity against Methicillin-resistant Staphylococcus aureus USA300 assessed as biofilm eradication at 32 times MIC by crystal violet staining based assay; type: functional
# Staphylococcus aureus [24] = assay: Antibiofilm activity against Methicillin-resistant Staphylococcus aureus USA300 assessed as inhibition of biofilm formation at 0.25 times MIC by crystal violet staining based assay; type: functional; parameters: scale not given: the % may be the effect or the level left
# Staphylococcus aureus [25] = assay: Antibacterial activity against Methicillin-resistant Staphylococcus aureus USA300 assessed as inhibition of bacterial growth incubated for 24 hrs by broth dilution method; type: functional
# Staphylococcus aureus [26] = assay: Inhibition of staphyloxanthin biosynthesis in Methicillin-resistant Staphylococcus aureus ATCC 3392 assessed as reduction in 4,4-Diapophytoene formation at 0.125 to 0.625 times MIC by nanodrop spectrophotometer analysis; type: functional, organism-based
# Pseudomonas aeruginosa = assay: Antibacterial activity against Pseudomonas aeruginosa […] assessed as inhibition of bacterial growth incubated for 24 hrs by broth dilution method; type: functional
# Staphylococcus aureus [27] = assay: Synergistic antibacterial activity against Methicillin-resistant Staphylococcus aureus USA300 infected in mouse skin infection model assessed as reduction in number of bacteria at 10 mg/kg, sc in presence of oxacillin administered every 12 hrs for 3 days; type: functional; conditions: time 3 day
# [28] = Cytotoxicity against mouse RAW264.7 cells assessed as survival rate incubated for 24 hrs by MTT assay; type: toxicity, cell-based; parameters: concentration or dose not given beside the values; conditions: read-out: Survival
# Cell membrane [29] = assay: Induction of inner membrane permeabilization in Staphylococcus aureus USA300 assessed as increase in fluorescence intensity at 1 times MIC incubated for 90 mins by SYTOX staining based analysis
# Staphylococcus aureus [30] = assay: Induction of resistance development in methicillin resistant Staphylococcus aureus USA300 assessed as fold increase in MIC measured upto 65 days; type: functional; conditions: time <= 65.0 day
# Staphylococcus aureus [31] = assay: Induction of resistance development in methicillin resistant Staphylococcus aureus USA300 at 25 to 150 microg/ml measured upto 65 days; type: functional; conditions: dose 25-150 µg/ml, time <= 65.0 day
# Staphylococcus aureus [32] = assay: Additive antibacterial activity against Methicillin-resistant Staphylococcus aureus USA300 assessed as doxycycline MIC incubated for 24 hrs by checkboard method(reference value: 0.125 microg/ml); type: functional
# [33] = Toxicity in mouse assessed as change in body weight at 10 mg/kg, sc administered every 12 hrs for 4 days; type: organism-based; conditions: in vivo, 96 h, time 4 day
# Staphylococcus aureus [34] = assay: Antibacterial activity against Methicillin-resistant Staphylococcus aureus USA300 infected in mouse skin infection model assessed as reduction in number of bacteria at 10 mg/kg, sc administered every 12 hrs for 3 days; type: functional
# Staphylococcus aureus [35] = assay: Antibacterial activity against Methicillin-resistant Staphylococcus aureus USA300 assessed as decrease in number of colonies at 1 to 4 times MIC incubated upto 8 hrs by time-kill kinetics assay; type: functional, organism-based
# Cell membrane [36] = assay: Induction of cell membrane damage in Staphylococcus aureus USA300 assessed as intracellular ATP leakage at 16 times MIC by confocal laser scanning microscopic analysis; type: cell membranes
# Cell membrane [37] = assay: Induction of cell membrane damage in Staphylococcus aureus USA300 assessed as nucleic acid leakage at 4 to 8 times MIC measured for 3 hrs by confocal laser scanning microscopic analysis; type: cell membranes
# Staphylococcus aureus [38] = assay: Bactericidal activity against methicillin-resistant Staphylococcus aureus ATCC 3392 assessed as inhibition of bacterial growth incubated for 24 hrs by broth dilution method; type: functional
# Staphylococcus aureus [39] = assay: Inhibition of staphyloxanthin biosynthesis in Methicillin-resistant Staphylococcus aureus ATCC 3392 assessed as reduction in 4,4-diaponeurosporenic acid formation at 0.125 to 0.625 times MIC by nanodrop spectrophotometer analysis; type: functional, organism-based
# Staphylococcus aureus [40] = assay: Inhibition of staphyloxanthin biosynthesis in Methicillin-resistant Staphylococcus aureus ATCC 3392 assessed as reduction in 4,4-Diaponeurosporene formation at 0.125 to 0.625 times MIC by nanodrop spectrophotometer analysis; type: functional, organism-based
smiles,measurement,setting,value
CCCCCCC(=O)c1c(O)cc(O)c(C(=O)CCCCCC)c1O,MBC,Staphylococcus aureus [1],1 µg/mL
same,MIC,Staphylococcus aureus [2],0.125 µg/mL
same,Activity,Staphylococcus aureus [3],Dose-Dependent Effect
same,MIC,Staphylococcus aureus [4],1 µg/mL
same,Activity,Staphylococcus aureus [5],Active
same,inhibition,Staphylococcus aureus [6],Active
same,Activity,Cell membrane [7],Dose-Dependent Effect
same,Activity,Cell membrane [8],Active
same,Activity,Staphylococcus aureus [9],Active
same,Activity,Cell membrane [10],Active
same,Activity,Staphylococcus aureus [11],37%
same,MIC,Escherichia coli,> 64 µg/mL
same,fractional inhibitory concentration index (FICI),Staphylococcus aureus [12],0.375
same,MIC,Staphylococcus aureus [13],0.125 µg/mL
same,fractional inhibitory concentration index (FICI),Staphylococcus aureus [14],0.75
same,Activity,Staphylococcus aureus [15],Active
same,MIC,Staphylococcus aureus [16],0.5 µg/mL
same,MIC,Klebsiella pneumoniae,> 64 µg/mL
same,viability at 24 h,[17],75%
same,Activity,Cell membrane [18],inactive
same,Activity,Cell membrane [19],Active
same,Selectivity Index,Staphylococcus aureus [20],1
same,fractional inhibitory concentration index (FICI),Staphylococcus aureus [21],0.312
same,Activity,Staphylococcus aureus [22],95%
same,Activity,Staphylococcus aureus [23],~50%
same,Activity,Staphylococcus aureus [24],58%
same,MIC,Staphylococcus aureus [25],0.5 µg/mL
same,inhibition,Staphylococcus aureus [26],inactive
same,MIC,Pseudomonas aeruginosa,> 64 µg/mL
same,Activity,Staphylococcus aureus [27],2.5 log10CFU/g
same,viability at 24 h,[28],76%
same,Activity,Cell membrane [29],Active
same,fold change (FC),Staphylococcus aureus [30],256
same,Activity,Staphylococcus aureus [31],Active
same,MIC,Staphylococcus aureus [32],0.25 µg/mL
same,Activity,[33],Non-Toxic
same,Activity,Staphylococcus aureus [34]; time 3 day,1.5 log10CFU/g
same,Activity,Staphylococcus aureus [35],Active
same,Activity,Cell membrane [36],70%
same,Activity,Cell membrane [37],Active
same,MBC,Staphylococcus aureus [38],1 µg/mL
same,inhibition,Staphylococcus aureus [39],Active
same,inhibition,Staphylococcus aureus [40],Active
CN[C@H](CC(C)C)C(=O)N[C@H]1C(=O)N[C@@H](CC(N)=O)C(=O)N[C@H]2C(=O)N[C@H]3C(=O)N[C@H](C(=O)N[C@H](C(=O)O)c4cc(O)cc(O)c4-c4cc3ccc4O)[C@H](O)c3ccc(c(Cl)c3)Oc3cc2cc(c3O[C@@H]2O[C@H](CO)[C@@H](O)[C@H](O)[C@H]2O[C@H]2C[C@](C)(N)[C@H](O)[C@H](C)O2)Oc2ccc(cc2Cl)[C@H]1O [VANCOMYCIN],MIC,Escherichia coli,> 64 µg/mL
same,MIC,Klebsiella pneumoniae,> 64 µg/mL
same,MIC,Pseudomonas aeruginosa,> 64 µg/mL
same,Activity,Staphylococcus aureus [34]; time 3.0 day,inactive
